From patent US20140323418A1, “SELECTIVE KINASE INHIBITORS” (PORTOLA PHARMACEUTICALS, INC., priority 2011, published 2014)

These molecules were tested against T1, full length active recombinant SYK enzyme (Homo sapiens, UniProt P43405) (assay: Inhibition of Syk tyrosine phosphorylation activity (LANCE TR-FRET kinase assay)). Conditions: 1 nM SYK, 550 nM substrate, 100 μM ATP, 1 hour room temperature.
T1 construct: full length active recombinant SYK enzyme (Millipore, Calif.); purchased Millipore
Assay type: biochemical
In the case of `CCn1ccc2c(Nc3nc(NC4CC4)ncc3C(N)=O)cccc21` [Example 114, 2-(cyclopropylamino)-4-(1-ethyl-1H-indol-4-ylamino)pyrimidine-5-carboxamide], the IC50 is reported as 100 to 1000 nM. For `CCn1ccc2c(Nc3nc(NC(C)C)ncc3C(N)=O)cccc21` [Example 115, 4-(1-ethyl-1H-indol-4-ylamino)-2-(isopropylamino)pyrimidine-5-carboxamide], the IC50 was 100 to 1000 nM. For `CCn1ccc2c(Nc3nc(NCC(C)C)ncc3C(N)=O)cccc21` [Example 116, 4-(1-ethyl-1H-indol-4-ylamino)-2-(isobutylamino)pyrimidine-5-carboxamide], the IC50 was 100 to 1000 nM. `Cc1cccc(Nc2nc(NC3(CN)CC3)ncc2C(N)=O)c1` [Example 117, 4-(m-toluidino)-2-(1-(aminomethyl)cyclopropylamino)pyrimidine-5-carboxamide] was tested, and the IC50 was 10 to 100 nM. `Cc1cccc(Nc2nc(N[C@H]3CC[C@@H](N)C3)ncc2C(N)=O)c1` [Example 118, 4-(m-toluidino)-2-((1S,3R)-3-aminocyclopentylamino)pyrimidine-5-carboxamide] showed an IC50 of 100 to 1000 nM. Work on `Cc1cccc(Nc2nc(N[C@@H]3CC[C@H](N)C3)ncc2C(N)=O)c1` [Example 119, 4-(m-toluidino)-2-((1R,3S)-3-aminocyclopentylamino)pyrimidine-5-carboxamide] yielded an IC50 of 100 to 1000 nM. `CC[C@@H](Nc1ncc(C(N)=O)c(Nc2cccc(C)c2)n1)C1(N)CC1` [Example 126, (R)-2-(1-(1-aminocyclopropyl)propylamino)-4-(m-tolylamino)pyrimidine-5-carboxamide] gave an IC50 of less than 1 nM. Molecule `CC[C@H](Nc1ncc(C(N)=O)c(Nc2cccc(C)c2)n1)C1(N)CC1` [Example 128, (S)-2-(1-(1-aminocyclopropyl)propylamino)-4-(m-tolylamino)pyrimidine-5-carboxamide] has an IC50 of 100 to 1000 nM. With `CC[C@@H](Nc1ncc(C(N)=O)c(Nc2ccc(C)cc2)n1)C1(N)CC1` [Example 130, (R)-2-(1-(1-aminocyclopropyl)propylamino)-4-(p-tolylamino)pyrimidine-5-carboxamide] the IC50 was 1 to 10 nM. For `CC[C@@H](Nc1ncc(C(N)=O)c(Nc2cccc(-c3ncccn3)c2)n1)C1(N)CC1` [Example 131, (R)-2-(1-(1-aminocyclopropyl)propylamino)-4-(3-(pyrimidin-2-yl)phenylamino)pyrimidine-5-carboxamide], the IC50 was 1 to 10 nM. For `CC[C@@H](Nc1ncc(C(N)=O)c(Nc2cccc(-n3cccn3)c2)n1)C1(N)CC1` [Example 132, (R)-4-(3-(1H-pyrazol-1-yl)phenylamino)-2-(1-(1-aminocyclopropyl)propylamino)pyrimidine-5-carboxamide], the IC50 was 1 to 10 nM. In the case of `CC[C@@H](Nc1ncc(C(N)=O)c(Nc2cccc(C3=NCCCN3)c2)n1)C1(N)CC1` [Example 133, (R)-2-(1-(1-aminocyclopropyl)propylamino)-4-(3-(1,4,5,6-tetrahydropyrimidin-2-yl)phenylamino)pyrimidine-5-carboxamide], the IC50 is reported as 100 to 1000 nM. `NC(=O)c1cnc(N[C@@H](C2CC2)C2(N)CC2)nc1Nc1cccc(-c2ncccn2)c1` [Example 134, (S)-2-(1-(1-aminocyclopropyl)(cyclopropyl)methylamino)-4-(3-(pyrimidin-2-yl)phenylamino)pyrimidine-5-carboxamide] was tested, and the IC50 was 100 to 1000 nM. `NC(=O)c1cnc(N[C@H](C2CC2)C2(N)CC2)nc1Nc1cccc(-c2ncccn2)c1` [Example 135, (R)-2-(1-(1-aminocyclopropyl)(cyclopropyl)methylamino)-4-(3-(pyrimidin-2-yl)phenylamino)pyrimidine-5-carboxamide] showed an IC50 of 1 to 10 nM. Molecule `CC(C)[C@@H](Nc1ncc(C(N)=O)c(Nc2cccc(-c3ncccn3)c2)n1)C1(N)CC1` [Example 136, (R)-2-(1-(1-aminocyclopropyl)-2-methylpropylamino)-4-(3-(pyrimidin-2-yl)phenylamino)pyrimidine-5-carboxamide] has an IC50 of 1 to 10 nM. `CC(C)[C@@H](Nc1ncc(C(N)=O)c(Nc2cccc(-n3nccn3)c2)n1)C1(N)CC1` [Example 138, (R)-4-(3-(2H-1,2,3-triazol-2-yl)phenylamino)-2-(1-(1-aminocyclopropyl)-2-methylpropylamino)pyrimidine-5-carboxamide] showed an IC50 of 1 to 10 nM. In the case of `CC(C)C[C@@H](Nc1ncc(C(N)=O)c(Nc2cccc(-n3cccn3)c2)n1)C1(N)CC1` [Example 139, (R)-4-(3-(1H-pyrazol-1-yl)phenylamino)-2-(1-(1-aminocyclopropyl)-3-methylbutylamino)pyrimidine-5-carboxamide], the IC50 is reported as 1 to 10 nM. Work on `CC(C)[C@@H](Nc1ncc(C(N)=O)c(Nc2cccc(-n3cccn3)c2)n1)C1(N)CC1` [Example 140, (R)-4-(3-(1H-pyrazol-1-yl)phenylamino)-2-(1-(1-aminocyclopropyl)-2-methylpropylamino)pyrimidine-5-carboxamide] yielded an IC50 of 1 to 10 nM. Molecule `C[C@@H](Nc1ncc(C(N)=O)c(Nc2cccc(-c3ncccn3)c2)n1)C1(N)CC1` [Example 141, (R)-2-(1-(1-aminocyclopropyl)ethylamino)-4-(3-(pyrimidin-2-yl)phenylamino)pyrimidine-5-carboxamide] has an IC50 of 1 to 10 nM. `C[C@@H](Nc1ncc(C(N)=O)c(Nc2cccc(-n3cccn3)c2)n1)C1(N)CC1` [Example 143, (R)-4-(3-(1H-pyrazol-1-yl)phenylamino)-2-(1-(1-aminocyclopropyl)ethylamino)pyrimidine-5-carboxamide] gave an IC50 of 1 to 10 nM. `Cc1cccc(Nc2nc(N[C@H](C(C)C)C3(N)CC3)ncc2C(N)=O)c1` [Example 144, (R)-2-(1-(1-aminocyclopropyl)-2-methylpropylamino)-4-(m-tolylamino)pyrimidine-5-carboxamide] gave an IC50 of 1 to 10 nM. `Cc1cccc(Nc2nc(N[C@H](C)C3(N)CC3)ncc2C(N)=O)c1` [Example 145, (R)-2-(1-(1-aminocyclopropyl)ethylamino)-4-(m-tolylamino)pyrimidine-5-carboxamide] gave an IC50 of 1 to 10 nM. `Cc1ccc(Nc2nc(N[C@H](C)C3(N)CC3)ncc2C(N)=O)cc1` [Example 146, (R)-2-(1-(1-aminocyclopropyl)ethylamino)-4-(p-tolylamino)pyrimidine-5-carboxamide] gave an IC50 of 10 to 100 nM. `Cc1cccc(Nc2nc(N[C@H](c3ccccc3)C3(N)CC3)ncc2C(N)=O)c1` [Example 147, (R)-2-(1-(1-aminocyclopropyl)(phenyl)methylamino)-4-(m-tolylamino)pyrimidine-5-carboxamide] was tested, and the IC50 was 10 to 100 nM. `Cc1cccc(Nc2nc(N[C@@H](c3ccccc3)C3(N)CC3)ncc2C(N)=O)c1` [Example 148, (5)-2-(1-(1-aminocyclopropyl)(phenyl)methylamino)-4-(m-tolylamino)pyrimidine-5-carboxamide] gave an IC50 of 100 to 1000 nM. `NC(=O)c1cnc(N[C@H](c2ccccc2)C2(N)CC2)nc1Nc1cccc(-n2nccn2)c1` [Example 149, (R)-4-(3-(2H-1,2,3-triazol-2-yl)phenylamino)-2-(1-(1-aminocyclopropyl)(phenyl)methylamino)pyrimidine-5-carboxamide] showed an IC50 of 10 to 100 nM. `NC(=O)c1cnc(N[C@H](c2ccccc2)C2(N)CC2)nc1Nc1cccc(-c2ncccn2)c1` [Example 150, (R)-2-(1-(1-aminocyclopropyl)(phenyl)methylamino)-4-(3-(pyrimidin-2-yl)phenylamino)pyrimidine-5-carboxamide] gave an IC50 of 10 to 100 nM. `NC(=O)c1cnc(N[C@H](C2CC2)C2(N)CC2)nc1Nc1cccc(-n2cccn2)c1` [Example 151, (R)-4-(3-(1H-pyrazol-1-yl)phenylamino)-2-(1-(1-aminocyclopropyl)(cyclopropyl)methylamino)pyrimidine-5-carboxamide] gave an IC50 of 1 to 10 nM. `NC(=O)c1cnc(N[C@H](C2CC2)C2(N)CC2)nc1Nc1cnc2ccccc2c1` [Example 152, (R)-2-(1-(1-aminocyclopropyl)(cyclopropyl)methylamino)-4-(quinolin-3-ylamino)pyrimidine-5-carboxamide] gave an IC50 of 1 to 10 nM. `NC(=O)c1cnc(N[C@H](C2CC2)C2(N)CC2)nc1Nc1ccc2c(c1)CCCN2` [Example 153, (R)-2-(1-(1-aminocyclopropyl)(cyclopropyl)methylamino)-4-(1,2,3,4-tetrahydroquinolin-6-ylamino)pyrimidine-5-carboxamide] gave an IC50 of 10 to 100 nM. For `CC[C@@H](Nc1ncc(C(N)=O)c(Nc2cnc3ccccc3c2)n1)C1(N)CC1` [Example 154, (R)-2-(1-(1-aminocyclopropyl)propylamino)-4-(quinolin-3-ylamino)pyrimidine-5-carboxamide], the IC50 was 1 to 10 nM. Molecule `NC(=O)c1cnc(N[C@H](C2CC2)C2(N)CC2)nc1Nc1ccc2ncccc2c1` [Example 155, (R)-2-(1-(1-aminocyclopropyl)(cyclopropyl)methylamino)-4-(quinolin-6-ylamino)pyrimidine-5-carboxamide] has an IC50 of 1 to 10 nM. Work on `NC(=O)c1cnc(N[C@H](C2CC2)C2(N)CC2)nc1Nc1cccc(F)c1` [Example 156, (R)-2-(1-(1-aminocyclopropyl)(cyclopropyl)methylamino)-4-(3-fluorophenylamino)pyrimidine-5-carboxamide] yielded an IC50 of 1 to 10 nM. Work on `NC(=O)c1cnc(N[C@H](C2CC2)C2(N)CC2)nc1Nc1cc(F)cc(F)c1` [Example 157, (R)-2-(1-(1-aminocyclopropyl)(cyclopropyl)methylamino)-4-(3,5-difluorophenylamino)pyrimidine-5-carboxamide] yielded an IC50 of 10 to 100 nM. Molecule `CC(C)[C@@H](Nc1ncc(C(N)=O)c(Nc2cnc3ccccc3c2)n1)C1(N)CC1` [Example 158, (R)-2-(1-(1-aminocyclopropyl)-2-methylpropylamino)-4-(quinolin-3-ylamino)pyrimidine-5-carboxamide] has an IC50 of 1 to 10 nM. `CC(C)[C@@H](Nc1ncc(C(N)=O)c(Nc2cccc(F)c2)n1)C1(N)CC1` [Example 159, (R)-2-(1-(1-aminocyclopropyl)-2-methylpropylamino)-4-(3-fluorophenylamino)pyrimidine-5-carboxamide] showed an IC50 of 1 to 10 nM. With `CC(C)[C@@H](Nc1ncc(C(N)=O)c(Nc2cc(F)cc(F)c2)n1)C1(N)CC1` [Example 160, (R)-2-(1-(1-aminocyclopropyl)-2-methylpropylamino)-4-(3,5-difluorophenylamino)pyrimidine-5-carboxamide] the IC50 was 10 to 100 nM.
